# From patent publication US12228580B2, “Methods of assigning a COVID pathological type based on a cytokine/chemokine panel” (IncellDx, Inc., priority 2020, dated 2025)
# Legend:
# [1] = test system: plasma cytokines/chemokines of Chronic COVID patients; experiment: 14-plex cytokine/chemokine panel in plasma and long hauler index (S1) of treated Chronic COVID patients; format: in vivo, human; conditions: 300 mg twice a day for 2 weeks; for S1 (long haul index, LHI; (IFN-gamma+IL-2)/CCL4-MIP-1β): Normals 0.1
# Text: Fresh plasma was used for cytokine quantification using a customized 14-plex bead based flow cytometric assay (IncelIKINE, IncellDx, Inc) on a CytoFlex flow cytometer as previously described using the following analytes: ‘TNF-α’, ‘IL-4’, ‘IL-13’, ‘IL-2’, ‘GM-CSF’, ‘sCD40L’, ‘CCL5 (RANTES)’, ‘CCL3 (MIP-1α)’, ‘IL-6’, ‘IL-10’, ‘IFN-γ’, ‘VEGF’, ‘IL-8’, and ‘CCL4 (MIP-1β) (Patterson et al., “CCR5 inhibition in Critical COVID-19 Patients Decreases Inflammatory Cytokines, Increases CD8 T-Cells, and Decreases SARS-CoV2 RNA in Plasma by Day 14”, Int J Infect Dis (2020) doi: 10.1016/j.ijid.2020.10.101). For each patient sample, 25 μL of plasma was used in each well of a 96-well plate. Standard curves with serial 6-point dilutions of antigen were run on each plate for each cytokine. Raw data was analyzed using LegendPlex software (Biolegend, Inc San Diego Calif.). Samples were run in duplicate.
# (§1) Long Hauler patients suffering from chronic COVID-19 were treated for 2 weeks with 300 mg of Maraviroc (SELZENTRY®) twice a day. […] The results are provided below, which provide patient profiles and LHI (long haul index) as determined using the panel described in the preceding example. LHI is also referred to as “Long Hauler Score” or S1, where S1=(IFN-gamma+IL-2)/CCL4-MIP-1β.
# [2] = test system: Long Hauler patients suffering from chronic COVID-19; experiment: Treatment of Long Hauler patients for chronic COVID-19: symptoms; format: in vivo, human; conditions: 300 mg twice a day for 2 weeks
# Procedure: as §1
substance,measurement,setting,value
Maraviroc,CCL5/RANTES in Chronic COVID patients successfully treated,[1]; Chronic COVID patients,Decreased CCL5/RANTES in Chronic COVID patients successfully treated
same,"long hauler Indices (LHI, S1)",[1]; Long Hauler patients,reduced
same,"S1 (long haul index, LHI; (IFN-gamma+IL-2)/CCL4-MIP-1β)","[1]; patient two, second sample (AB2), first sample AB1 4.0",0.3
same,GM-CSF,"[1]; patient two, second sample (AB2), first sample AB1 6.02",15.09 pg/mL
same,TNF-α,"[1]; patient two, second sample (AB2), first sample AB1 7.75",17.13 pg/mL
same,IL-10,"[1]; patient two, second sample (AB2), first sample AB1 7.90",<0.61 pg/mL
same,IL-6,"[1]; patient two, second sample (AB2), first sample AB1 10.88",<0.6 pg/mL
same,IL-4,"[1]; patient two, second sample (AB2), first sample AB1 11.06",4.12 pg/mL
same,IL-2,"[1]; patient two, second sample (AB2), first sample AB1 12.57",2.15 pg/mL
same,CCL4 (MIP-1β),"[1]; patient two, second sample (AB2), first sample AB1 15.52",8.43 pg/mL
same,IFN-γ,"[1]; patient two, second sample (AB2), first sample AB1 48.78",<0.92 pg/mL
same,VEGF,"[1]; patient two, second sample (AB2), first sample AB1 60.41",22.98 pg/mL
same,CCL3 (MIP-1α),"[1]; patient two, second sample (AB2), first sample AB1 87.65",<1.22 pg/mL
same,CCL5 (RANTES),"[1]; patient two, second sample (AB2), first sample AB1 13082.39",12261.36 pg/mL
same,sCD40L,"[1]; patient two, second sample (AB2), first sample AB1 13488.",12631. pg/ml
same,IL-13,"[1]; patient two, second sample (AB2), first sample AB1 <3.07",4.35 pg/mL
same,IL-8,"[1]; patient two, second sample (AB2), first sample AB1 <15.74",18.37 pg/mL
same,CCL4 (MIP-1β),"[1]; unlabelled patient, second line, first line 3.62",9.79 pg/mL
same,IL-13,"[1]; unlabelled patient, second line, first line 5.56",4.22 pg/mL
same,GM-CSF,"[1]; unlabelled patient, second line, first line 10.40",9.07 pg/mL
same,"S1 (long haul index, LHI; (IFN-gamma+IL-2)/CCL4-MIP-1β)","[1]; unlabelled patient, second line, first line 11.4",1.3
same,TNF-α,"[1]; unlabelled patient, second line, first line 17.86",17.50 pg/mL
same,IL-2,"[1]; unlabelled patient, second line, first line 33.94",4.89 pg/mL
same,VEGF,"[1]; unlabelled patient, second line, first line 39.00",31.62 pg/mL
same,sCD40L,"[1]; unlabelled patient, second line, first line 8980.",41374. pg/ml
same,CCL5 (RANTES),"[1]; unlabelled patient, second line, first line 14334.86",10011.91 pg/mL
same,IL-10,"[1]; unlabelled patient, second line, first line <1.20",<2.49 pg/mL
same,IL-8,"[1]; unlabelled patient, second line, first line <3.82",<9.98 pg/mL
same,IL-6,"[1]; unlabelled patient, second line, first line <4.66",<3.60 pg/mL
same,IL-4,"[1]; unlabelled patient, second line, first line <5.02",<1.22 pg/mL
same,IFN-γ,"[1]; unlabelled patient, second line, first line <7.30",<7.77 pg/mL
same,CCL3 (MIP-1α),"[1]; unlabelled patient, second line, first line <34.82",<45.08 pg/mL
same,symptoms in long haulers,[2],alleviated or completely resolved symptoms
